Measurements from patent US20060246436A1 (priority 2002, published 2006).

Assays:
[1] = system: peripheral blood cells positive for Ph chromosome; details: of 18 CML patients; after five months of imatinib treatment
Excerpt: The remaining four were reserved to test the predictive scoring system later. Of the 22, two “learning” cases (the cases used for the construction of the prediction system described later) were in blast crisis phase and two “test” cases (the cases used for testing the correctness of the prediction system described later) were in accelerated phase.

[2] = system: Ph chromosome-positive leukemia cells; details: cited from earlier work

Cc1ccc(NC(=O)c2ccc(CN3CCN(C)CC3)cc2)cc1Nc1nccc(-c2cccnc2)n1 [imatinib, 4-(4-methylpiperazin-1-ylmethyl)-N-[4-methyl-3-(4-pyridin-3-ylpyrimidin-2-ylamino)phenyl]benzamide]
patients with more than 65% of cells still positive for the Ph chromosome, non-responders [1]: six | adverse effects ([2]; CML patients): without severe adverse effects | patients in whom Ph chromosome-positive leukemia cells are completely or partially reduced ([2]; CML patients): more than 60% | CML patients induced into hematological complete remission [2]: around 90%
